Experimental data as given in patent publication US20230144385A1, “ETHANOLAMINE FORMULATION FOR TREATING EPITHELIAL OVARIAN CARCINOMA” (METANOI THERAPEUTICS, INC., priority 2020, published 2023).

Assays:
[1] = biological target: KIFC1/microtubule (MT) binary complex (Homo sapiens, UniProt Q9BW19); conditions: ATP-competitive, MT-noncompetitive; cited from earlier work
[2] = system: BT-549 breast cancer cells; conditions: BT-549 cells with amplified centrosomes; cited from earlier work
[3] = biological target: FR2 (Homo sapiens, UniProt P14207); conditions: read-out: affinity; cited from earlier work
Sequence of FR2 (P14207 17-230): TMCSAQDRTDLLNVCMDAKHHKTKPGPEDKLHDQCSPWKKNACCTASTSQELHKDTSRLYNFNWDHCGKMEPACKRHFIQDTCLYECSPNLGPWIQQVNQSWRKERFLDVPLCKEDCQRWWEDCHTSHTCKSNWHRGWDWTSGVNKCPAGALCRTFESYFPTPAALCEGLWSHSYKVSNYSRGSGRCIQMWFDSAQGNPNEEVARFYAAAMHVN

[4] = biological target: FR1 (Homo sapiens, UniProt P15328); conditions: read-out: affinity; cited from earlier work
Sequence of FR1 (P15328 25-234): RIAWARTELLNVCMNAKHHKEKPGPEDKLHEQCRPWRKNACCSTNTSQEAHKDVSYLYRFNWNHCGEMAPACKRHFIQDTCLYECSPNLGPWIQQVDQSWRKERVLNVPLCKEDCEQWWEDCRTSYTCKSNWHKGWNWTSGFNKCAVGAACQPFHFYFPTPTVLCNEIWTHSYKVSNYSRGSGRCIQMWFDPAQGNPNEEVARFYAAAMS

[5] = system: PC-3 cells; assay: Clonogenic survival assay, PC-3 cells; type: cell-based, human; conditions: 2 mg/mL, pH 7.4, PC-3 cells
Experimental: (§1) PhosE was ineffective in inhibiting proliferation and colony formation of these cell lines up to 100 mg/ml (data not shown).

[6] = system: PC-3 cells; assay: Intracellular Etn and PhosE levels in treated PC-3 cells; type: cell-based, human; conditions: PC-3 cells treated with Etn or PhosE
Excerpt: (§2) FIG. 2. […] (B) Effect of choline kinase inhibition on proliferation of PC-3 cells. (C) Intracellular PhosE level upon Etn treatment.

[7] = system: prostate cancer xenograft (PC-3-luc tumors); assay: Prostate cancer xenograft model, oral treatment; type: in vivo, mice
Excerpt: FIG. 3. (Ai) Representative bioluminescent images of one animal per group indicating progression of tumor growth over 4 weeks in control and Etn-treated mice. (Aii) Tumor growth monitored (by vernier calipers) over a period of 4 weeks. (Aiii) Weight of tumors from control and Etn-treated mice.
The in vivo efficacy of this formulation was first examined (FIG. 3A). There was an ˜67% reduction in tumor volume (FIG. 3Aii) and ˜55% reduction in tumor weight (FIG. 3Aiii) after 4 weeks of treatment.

[8] = system: MDA-MB-468, OVCAR-3, HCT116 and CFPAC cells; assay: MTT dose-response on cancer cell lines from diverse tissues; type: cell-based
Experimental: as §1

[9] = system: PC-3 cells; assay: Annexin V flow cytometry, PC-3 cells; type: cell-based, human
[10] = system: PC-3 cells; assay: PC-3 survival on Etn treatment with or without choline kinase inhibitor; type: cell-based, human; conditions: with CK inhibition
Excerpt: as §2

[11] = system: PC-3, DU145, C42B and RWPE-1 cells; assay: MTT cell survival, prostate cancer lines versus normal prostate cells; type: cell-based; conditions: 0.5 and 1 mg/mL, 48 hours, pH 7.4
Experimental: as §1

[12] = system: cultured cells; assay: Glucose and glutamine content of cultured cells; type: cell-based; conditions: versus control
Experimental: (§3) FIG. 5. (A) Immunoblots of control and Etn-treated cell lysates for HIF1-α. […] Intracellular glucose (Ci) and glutamine (Cii) levels in control and Etn-treated tumors. (D) Effect of choline kinase inhibition on intracellular levels of glucose (Di) and glutamine (Dii) in Etn-treated cells.
(§4) It was hypothesized that PhosE accumulation alters HIF1-a expression/function that impairs glucose/glutamine metabolism leading to metabolic stress, which activates p53-induced cell death. […] OCR was measured in control and Etn-treated cells, and evaluated the glucose and glutamine content in (a) cultured cells and (b) tumors from control and Etn-treated mice. […] Inhibition of CK abrogated the Etn-mediated decrease in cellular glucose and glutamine content (FIGS. 5Di, ii).

[13] = system: CYP; assay: CYP-related drug-drug interaction liability; type: in vitro ADME
Excerpt: (§5) ADM E and pharmacological properties of orally-delivered PhosE and Etn [both phosphatidylethanolamine (PE) lipid precursors] were first compared. […] Our mechanistic studies identified CK overexpression—a hallmark of metabolic reprogramming in multiple cancer types—in prostate tumor cells compared to adjacent normal. […] It was hypothesize that an Etn-based formulation can be developed into a safe, selective, pharmacodynamically- and pharmacokinetically-favorable, IND entity that singly or synergistically with the ICI Nivolumab, provides a novel therapeutic option for chemo-resistant EOCs/OCCC.

[14] = system: prostate cancer xenograft tumors; assay: Glucose and glutamine content of tumors; type: in vivo, mice; conditions: versus control
Experimental: as §3, §4

[15] = system: PC-3 cells; assay: Immunoblots of cell cycle and apoptosis markers in PC-3 cell lysates; type: cell-based, human
Excerpt: (§6) FIG. 4. (A) Immunoblots of control and Etn-treated cell lysates for pRb, cdk4, cdk2, p21, c-PARP, Bim, Bcl-2 and β actin. […] (C) Immunoblots of control and Etn-treated tumors lysates for p53, p21, Bax, pBcl-2, c-PARP, Bim, Bid and β actin. (D) Micrographs showing IHC staining of Ki67 and c-PARP in control and Etn-treated prostate cancer xenografts.

[16] = system: prostate cancer xenografts; assay: Immunoblots and IHC of xenograft tumors; type: in vivo, mice
Excerpt: as §6

[17] = system: HIF1-α; assay: HIF1-α immunoblot of treated cell lysates; type: cell-based; conditions: Etn-treated cells
Experimental: as §3, §4

[18] = system: PC-3 cells; assay: MTT cell survival/proliferation assay, PC-3 cells; type: cell-based, human; conditions: 48 hours, pH 7.4, compared with PhosE
Experimental: as §1

[19] = system: prostate cancer xenograft tumors; assay: TEM and LC/MS-MS lipidomics of xenograft tumors; type: in vivo, mice
Excerpt: FIG. 6. […] Ultra-thin sections were cut on Boeckeler MTx ultramicrotome, counterstained with lead citrate, and examined on a LEO 906e TEM. Mitochondria and accumulated lipid granules are highlighted by red arrows. […] Left panels, scale bar ¼2 […]; right panels, scale bar ¼5 mm. […] Levels of PE (i), PS (ii), PC (iii), and SM (iv) lipids in control and Etn-treated tumors. In the abbreviation of lipid, 1st and 2nd numbers denote the number of carbon atoms and unsaturated bonds present in the lipid, respectively. Lipid amounts were quantified by LC/MS-MS. Values and error bars shown represent mean and SE, respectively.
Lipidomic analyses of tumors from control and Etn-treated groups quantified 402 lipids from various lipid classes such as phosphatidylethanolamine (PE), phosphatidylcholine (PC), phosphatidylserine (PS), lysophospholipids, ceramides, and sphingomyelin (SM). Levels of 21 PE lipids (FIG. 6Bi), and other lipids from the PS (FIG. 6Bii), PC (FIG. […]), and SM (FIG. 6Biv) classes were increased in Etn-treated tumors. Thus, PhosE and phospholipid accumulation downregulates HIF-1α, precipitates a bioenergetics/metabolic crisis, activates p53-mediated signaling and culminates in cell death.

[20] = GI tract stability, Etn compared with PhosE; type: in vitro ADME; conditions: compared to PhosE
Excerpt: as §5

[21] = system: PC-3 cells; assay: Oxygen consumption rate in PC-3 cells; type: cell-based, human
Experimental: as §3, §4

[22] = 40 mg/kg Etn, pH=5.0, oral, after 4 weeks

Sequence of KIFC1/microtubule (MT) binary complex (Q9BW19 whole entry, species assumed): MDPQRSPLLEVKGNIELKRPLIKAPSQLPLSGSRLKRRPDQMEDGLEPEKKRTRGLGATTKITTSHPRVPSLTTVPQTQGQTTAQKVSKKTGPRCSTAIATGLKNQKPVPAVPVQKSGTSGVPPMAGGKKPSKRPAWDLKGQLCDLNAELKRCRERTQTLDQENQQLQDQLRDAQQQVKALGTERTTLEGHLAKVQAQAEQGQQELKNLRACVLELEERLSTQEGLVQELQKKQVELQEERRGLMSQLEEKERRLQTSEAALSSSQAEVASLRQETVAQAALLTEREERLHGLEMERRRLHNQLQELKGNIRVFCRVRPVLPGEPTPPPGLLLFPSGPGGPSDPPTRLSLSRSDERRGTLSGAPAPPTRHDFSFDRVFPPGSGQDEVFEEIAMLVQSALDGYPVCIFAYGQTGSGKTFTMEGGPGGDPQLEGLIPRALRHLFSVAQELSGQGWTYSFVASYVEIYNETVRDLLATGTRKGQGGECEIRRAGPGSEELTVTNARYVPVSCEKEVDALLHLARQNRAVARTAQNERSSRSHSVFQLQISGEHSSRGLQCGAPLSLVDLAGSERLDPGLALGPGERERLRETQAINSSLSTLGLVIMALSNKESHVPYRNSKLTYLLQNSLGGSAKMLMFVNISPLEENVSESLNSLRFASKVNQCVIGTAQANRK
Sequence of KIFC1/microtubule (MT) binary complex (P68363 whole entry partner, species assumed): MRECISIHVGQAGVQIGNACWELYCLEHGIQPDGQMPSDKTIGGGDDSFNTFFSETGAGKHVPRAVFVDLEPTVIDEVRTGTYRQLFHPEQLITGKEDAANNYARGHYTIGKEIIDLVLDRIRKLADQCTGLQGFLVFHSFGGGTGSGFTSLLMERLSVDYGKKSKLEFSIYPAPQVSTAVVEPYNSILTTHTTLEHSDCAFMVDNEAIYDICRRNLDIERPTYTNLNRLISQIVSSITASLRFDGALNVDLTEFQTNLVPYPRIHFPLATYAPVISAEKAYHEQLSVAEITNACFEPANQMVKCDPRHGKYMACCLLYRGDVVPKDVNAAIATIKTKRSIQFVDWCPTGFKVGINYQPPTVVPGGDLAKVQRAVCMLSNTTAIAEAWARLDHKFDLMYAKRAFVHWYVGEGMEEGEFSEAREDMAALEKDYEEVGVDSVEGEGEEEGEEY
Sequence of KIFC1/microtubule (MT) binary complex (Q9BVA1 whole entry partner, species assumed): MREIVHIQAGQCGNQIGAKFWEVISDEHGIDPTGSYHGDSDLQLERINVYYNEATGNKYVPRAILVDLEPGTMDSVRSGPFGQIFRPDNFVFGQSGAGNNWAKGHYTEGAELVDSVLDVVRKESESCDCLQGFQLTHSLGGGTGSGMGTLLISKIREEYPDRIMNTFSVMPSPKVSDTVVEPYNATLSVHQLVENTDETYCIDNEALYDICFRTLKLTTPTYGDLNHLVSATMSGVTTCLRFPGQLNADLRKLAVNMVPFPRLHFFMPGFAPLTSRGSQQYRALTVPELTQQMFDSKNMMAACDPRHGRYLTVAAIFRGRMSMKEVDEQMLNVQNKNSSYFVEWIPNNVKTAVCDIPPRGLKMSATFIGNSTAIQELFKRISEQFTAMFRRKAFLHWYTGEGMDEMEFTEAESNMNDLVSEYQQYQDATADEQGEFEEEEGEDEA

CCCc1cc(C(=O)N[C@H](Cc2ccc(-c3cccc(OC(F)(F)F)c3)nc2)C(=O)N[C@@H]2CCNC2)sc1C [AZ82]
Ki [1]: 43 nM
centrosome declustering [2]: causes centrosome declustering

CN1c2c(nc(N)[nH]c2=O)NC[C@@H]1CNc1ccc(C(=O)N[C@@H](CCC(=O)O)C(=O)O)cc1 [6S 5-methyltetrahydrofolate]
Kd [3]: 1 nM
Kd [4]: 55 nM

NCCOP(=O)(O)O [PhosE, phosphoethanolamine, reference compound]
decrease in colony numbers [5]: ineffective in decreasing colony numbers
intracellular PhosE levels [6]: increased intracellular PhosE levels
inhibition of tumor growth compared with Etn ([7]; orally delivered formulations): less effective than Etn
inhibition of proliferation and colony formation ([8]; up to 100 mg/ml, data not shown): ineffective

NCCO [Etn, Monoethanolamine]
annexin-V positive apoptotic cells [9]: increased the number of annexin-V positive apoptotic cells
decrease in colony numbers [5]: ~97%
intracellular PhosE levels [6]: more pronounced
antiproliferative activity in presence of CK inhibitor [10]: significantly attenuated
conversion of Etn into PhosE in presence of CK inhibitor [10]: reduced conversion of Etn into PhosE
reduction of viability, prostate cancer lines versus normal prostate cells [11]: more effective in reducing viability of prostate cancer lines
glucose content [12]: significantly reduced
glutamine content [12]: significantly reduced
CYP-related drug-drug interaction liability [13]: lacked CYP-related drug-drug interaction liability
body weight ([7]; 40 mg/kg Etn, oral, over 4 weeks): no change in body weight
reduction in tumor volume [7, 22]: ~67%
reduction in tumor weight [7, 22]: ~55%
intratumoral Etn ([7]; after 4 weeks of Etn treatment): no significant change
intratumoral PhosE level versus controls ([7]; after 4 weeks of Etn treatment): ~38%
glucose content [14]: significantly reduced
glutamine content [14]: significantly reduced
inhibition of proliferation ([8]; breast, ovary, colon and pancreas cell lines): inhibited proliferation in all the cell lines tested
apoptosis markers (c-PARP, Bim, Bcl-2) [15]: increased levels of proapoptotic markers such as c-PARP and Bim, and decreased antiapoptotic molecules such as Bcl-2
cell cycle markers (pRb, Cdk4, Cdk2, p21) [15]: downregulated pRb, Cdk4, and Cdk2, and upregulated p21
tumor lysate markers (p53, p21, Bax, pBcl2, c-PARP, Bim, Bid) ([16]; 40 mg/kg Etn): upregulation of p53, p21, Bax, pBcl2, c-PARP, Bim and Bid
Ki67 and c-PARP expression (IHC) in tumors ([16]; treated versus control tumors): marked decrease in Ki67 expression and increase in c-PARP expression
HIF1-a expression [17]: strongly downregulated
inhibition of PC-3 cell proliferation [18]: more effective
mitochondrial morphology (TEM) ([19]; 40 mg/kg Etn-treated tumors versus controls): elongated mitochondria with highly degraded matrices
levels of PE, PS, PC and SM lipids ([19]; Etn-treated tumors, LC/MS-MS): increased
GI tract stability [20]: better GI tract stability
oxygen consumption rate (OCR) [21]: decreased OCR
